≈ marks a conversion by molar mass, not a printed value. Like-named read-outs stand apart in the source and are kept apart here.
Experiments:
Assay in all cases: Minimum inhibitory concentration, serial dilution method on agar plate
Type in all cases: cell-based
[1] = test system: Pseudomonas aeruginosa E-2; conditions: Pseudomonas aeruginosa, read-out: Minimum Inhibitory Concentration
[2] = test system: Serratia marcescens IFO 12648
Proteus rettgeri NIH 96 = conditions: Providencia rettgeri
[3] = test system: Pseudomonas aeruginosa ATCC 10145; conditions: Pseudomonas aeruginosa, read-out: Minimum Inhibitory Concentration
[4] = test system: Escherichia Coli NIHJ JC-2 (IFO 12734); conditions: read-out: Minimum Inhibitory Concentration
[5] = test system: Staphylococcus aureus FDA 209 P; conditions: Staphylococcus aureus, read-out: Minimum Inhibitory Concentration
Pseudomonas putida 12996 = conditions: read-out: Minimum Inhibitory Concentration
[6] = test system: Streptococcus pyogenes IID S-23; conditions: Streptococcus pyogenes, read-out: Minimum Inhibitory Concentration
Shigella sonnei EW 33 = test system: Shigella sonnei EW 33
Method: The antimicrobial activity of the following test compounds on various test organisms listed below was determined by the serial dilution method on agar plate (Heart Infusion agar produced by Difco Co.) (see CHEMOTHERAPY 22, pp. 1126-1128 (1974)), and the minimum inhibitory concentrations (mcg/ml) obtained are shown in Tables 1, 2 and 3 below.
A sample of each test organism was prepared so that the population of the organism was 1×10^8 cells/ml (O.D. 660 mμ=0.07 to 0.16) and 1×10^6 cells/ml (which was obtained by diluting 100 fold the above 1×10^8 cells/ml preparation).

[7] = test system: Salmonella typhi 0-901 (NCTC 8393); conditions: Salmonella enterica
Klebsiella pneumoniae = conditions: read-out: Minimum Inhibitory Concentration
[8] = test system: Pseudomonas aeruginosa NCTC 10490; conditions: for Minimum Inhibitory Concentration: 1×10^6 cells/ml; for MIC: Pseudomonas aeruginosa, NCTC10490, 1×10^8 cells/ml
[9] = IFO12648, 1×10^6 cells/ml, read-out: Minimum Inhibitory Concentration
[10] = IFO12648, 1×10^8 cells/ml, read-out: Minimum Inhibitory Concentration
[11] = Pseudomonas putida, 12996, 1×10^6 cells/ml
[12] = Pseudomonas putida, 12996, 1×10^8 cells/ml
[13] = read-out: Minimum Inhibitory Concentration, 1×10^6 cells/ml
[14] = read-out: Minimum Inhibitory Concentration, 1×10^8 cells/ml
[15] = NIH96, 1×10^6 cells/ml, read-out: Minimum Inhibitory Concentration
[16] = NIH96, 1×10^8 cells/ml, read-out: Minimum Inhibitory Concentration

| Compound | MIC ([1]; E2, 1×10^6 cells/ml) | MIC ([1]; E2, 1×10^8 cells/ml) | MIC [2, 9] | MIC [2, 10] | MIC ([3]; ATCC10145, 1×10^6 cells/ml) | MIC ([3]; ATCC10145, 1×10^8 cells/ml) | MIC ([4]; 1×10^6 cells/ml) | MIC ([4]; 1×10^8 cells/ml) | MIC ([5]; FDA209, 1×10^6 cells/ml) | MIC ([5]; FDA209, 1×10^8 cells/ml) | MIC ([6]; IIDS23, 1×10^6 cells/ml) | MIC ([6]; IIDS23, 1×10^8 cells/ml) | MIC (Shigella sonnei EW 33; EW33, 1×10^6 cells/ml) | MIC (Shigella sonnei EW 33; EW33, 1×10^8 cells/ml) | MIC [7, 13] | MIC [7, 14] | MIC (Klebsiella pneumoniae; 1×10^6 cells/ml) | MIC (Klebsiella pneumoniae; 1×10^8 cells/ml) | MIC (Proteus rettgeri NIH 96; [15]) | MIC (Proteus rettgeri NIH 96; [16]) | also measured |
| --- | --- | --- | --- | --- | --- | --- | --- | --- | --- | --- | --- | --- | --- | --- | --- | --- | --- | --- | --- | --- | --- |
| CC(=O)OC1CCN(c2c(F)cc3c(=O)c(C(=O)O)cn4c3c2CCC4C)CC1 (stereo not shown) [Compound 3, 9-Fluoro-8-(4-acetyloxy-1-piperidyl)-5-methyl-6,7-dihydro-1-oxo-1H,5H-benzo[ij]quinolizine-2-carboxylic acid] | 6.25 µg/mL (≈ 15.5 µM) | 6.25 µg/mL (≈ 15.5 µM) | 1.56 µg/mL (≈ 3.88 µM) | 3.13 µg/mL (≈ 7.78 µM) | 3.13 µg/mL (≈ 7.78 µM) | 6.25 µg/mL (≈ 15.5 µM) | 0.39 µg/mL (≈ 0.969 µM) | 0.39 µg/mL (≈ 0.969 µM) | 0.05 µg/mL (≈ 0.124 µM) | 0.05 µg/mL (≈ 0.124 µM) | 0.78 µg/mL (≈ 1.94 µM) | 0.78 µg/mL (≈ 1.94 µM) | 0.2 µg/mL (≈ 0.497 µM) | 0.2 µg/mL (≈ 0.497 µM) | 0.1 µg/mL (≈ 0.248 µM) | 0.1 µg/mL (≈ 0.248 µM) | 0.39 µg/mL (≈ 0.969 µM) | 0.39 µg/mL (≈ 0.969 µM) |  |  | MIC (Proteus rettgeri NIH 96; NIH96, read-out: Minimum Inhibitory Concentration, 1×10^6 cells/ml): 0.2 µg/mL (≈ 0.497 µM); MIC (Proteus rettgeri NIH 96; NIH96, read-out: Minimum Inhibitory Concentration, 1×10^8 cells/ml): 0.2 µg/mL (≈ 0.497 µM); MIC (Pseudomonas putida 12996; [11]): 6.25 µg/mL (≈ 15.5 µM); MIC (Pseudomonas putida 12996; [12]): 6.25 µg/mL (≈ 15.5 µM) |
| CC1CCc2c(N3CCCCC3)c(F)cc3c(=O)c(C(=O)O)cn1c23 (stereo not shown) [Compound 4, 9-Fluoro-8-(1-piperidyl)-5-methyl-6,7-dihydro-1-oxo-1H,5H-benzo[ij]quinolizine-2-carboxylic acid] | 12.5 µg/mL (≈ 36.3 µM) | 25 µg/mL (≈ 72.6 µM) | 6.25 µg/mL (≈ 18.1 µM) | 12.5 µg/mL (≈ 36.3 µM) | 12.5 µg/mL (≈ 36.3 µM) | 12.5 µg/mL (≈ 36.3 µM) | 1.56 µg/mL (≈ 4.53 µM) | 1.56 µg/mL (≈ 4.53 µM) | 0.05 µg/mL (≈ 0.145 µM) | 0.05 µg/mL (≈ 0.145 µM) | 0.78 µg/mL (≈ 2.26 µM) | 1.56 µg/mL (≈ 4.53 µM) | 0.78 µg/mL (≈ 2.26 µM) | 0.78 µg/mL (≈ 2.26 µM) | 0.39 µg/mL (≈ 1.13 µM) | 0.39 µg/mL (≈ 1.13 µM) | 1.56 µg/mL (≈ 4.53 µM) | 1.56 µg/mL (≈ 4.53 µM) | 1.56 µg/mL (≈ 4.53 µM) | 1.56 µg/mL (≈ 4.53 µM) | MIC (Pseudomonas putida 12996; [11]): 25 µg/mL (≈ 72.6 µM); MIC (Pseudomonas putida 12996; [12]): 25 µg/mL (≈ 72.6 µM) |
| CC1Cc2c(N3CCN(C(F)(F)F)CC3)c(F)cc3c(=O)c(C(=O)O)cn1c23.Cl (stereo not shown) [Compound 8, 9-(4-Trifluoromethyl-1-piperazinyl)-8-fluoro-2-methyl-1,2-dihydro-6-oxo-pyrrolo[3,2,1-ij]quinoline-5-carboxylic acid hydrochloride] | 0.39 µg/mL | 0.39 µg/mL |  |  | 0.39 µg/mL | 0.39 µg/mL | 0.024 µg/mL | 0.05 µg/mL | 0.024 µg/mL | 0.05 µg/mL | 0.39 µg/mL | 0.78 µg/mL | ≤ 0.006 µg/mL | 0.012 µg/mL | ≤ 0.006 µg/mL | ≤ 0.006 µg/mL | 0.012 µg/mL | 0.05 µg/mL | < 0.006 µg/mL | 0.012 µg/mL | MIC ([2]; IFO12648, read-out: Minimum Inhibitory Concentration, 1×10^6 cells/ml): 0.1 µg/mL; MIC ([2]; IFO12648, read-out: Minimum Inhibitory Concentration, 1×10^8 cells/ml): 0.2 µg/mL; Minimum Inhibitory Concentration [8]: 0.39 µg/mL; MIC [8]: 0.39 µg/mL |
| CC1Cc2c(N3CCOCC3)c(F)cc3c(=O)c(C(=O)O)cn1c23 (stereo not shown) [Compound 7, 9-Morpholino-8-fluoro-2-methyl-1,2-dihydro-6-oxo-pyrrolo[3,2,1-ij]quinoline-5-carboxylic acid] | 1.56 µg/mL (≈ 4.69 µM) | 1.56 µg/mL (≈ 4.69 µM) | 0.2 µg/mL (≈ 0.602 µM) | 0.39 µg/mL (≈ 1.17 µM) | 1.56 µg/mL (≈ 4.69 µM) | 1.56 µg/mL (≈ 4.69 µM) | 0.2 µg/mL (≈ 0.602 µM) | 0.2 µg/mL (≈ 0.602 µM) | 0.024 µg/mL (≈ 0.0722 µM) | 0.024 µg/mL (≈ 0.0722 µM) | 0.78 µg/mL (≈ 2.35 µM) | 0.78 µg/mL (≈ 2.35 µM) | 0.024 µg/mL (≈ 0.0722 µM) | 0.024 µg/mL (≈ 0.0722 µM) | 0.024 µg/mL (≈ 0.0722 µM) | 0.024 µg/mL (≈ 0.0722 µM) | 0.1 µg/mL (≈ 0.301 µM) | 0.2 µg/mL (≈ 0.602 µM) | 0.05 µg/mL (≈ 0.15 µM) | 0.05 µg/mL (≈ 0.15 µM) | Minimum Inhibitory Concentration [8]: 1.56 µg/mL; MIC [8]: 1.56 µg/mL (≈ 4.69 µM) |
